Among the data in patent US8557816B2, “Aurora kinase modulators and method of use” (Amgen Inc., priority 2007, dated 2013) are IC50 values, retold here.

The target in one assay is T1, AuroraA-TPX2 (Homo sapiens, UniProt O14965).
T1 construct: 20 μL of AuroraA-TPX2 KD GST for a final volume of about 41 μL; GST
T1 sequence (O14965 133-383 limits assumed): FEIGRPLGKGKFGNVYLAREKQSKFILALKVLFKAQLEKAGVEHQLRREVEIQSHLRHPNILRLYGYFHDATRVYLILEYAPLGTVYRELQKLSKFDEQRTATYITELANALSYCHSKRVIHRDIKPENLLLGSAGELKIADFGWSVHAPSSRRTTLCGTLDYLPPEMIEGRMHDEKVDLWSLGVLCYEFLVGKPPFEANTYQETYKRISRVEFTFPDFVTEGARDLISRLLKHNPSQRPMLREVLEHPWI
T1 sequence (Q9ULW0 1-43 partner limits assumed): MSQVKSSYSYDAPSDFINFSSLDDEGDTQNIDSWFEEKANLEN
Description: AuroraA-TPX2 Homogeneous Time Resolved Fluorescent (HTRF) kinase assay. The format is biochemical. The settings on record: average; read-out: AurA_IC50_IP (uM Avg). The method in brief:
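HTRF read-out (Eu 615 nm to APC 655 nm) of phosphorylated biotin-PLK, detected with 0.02 nM europium anti-phosphoPLK antibody and 0.0005 mg/mL SA-APC after overnight equilibration.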

The next assay deals with T2, AuroraB (Homo sapiens, UniProt Q96GD4).
T2 construct: 20 μL of AuroraB FL H is for a final volume of 41 μL; His
T2 sequence (Q96GD4 whole entry): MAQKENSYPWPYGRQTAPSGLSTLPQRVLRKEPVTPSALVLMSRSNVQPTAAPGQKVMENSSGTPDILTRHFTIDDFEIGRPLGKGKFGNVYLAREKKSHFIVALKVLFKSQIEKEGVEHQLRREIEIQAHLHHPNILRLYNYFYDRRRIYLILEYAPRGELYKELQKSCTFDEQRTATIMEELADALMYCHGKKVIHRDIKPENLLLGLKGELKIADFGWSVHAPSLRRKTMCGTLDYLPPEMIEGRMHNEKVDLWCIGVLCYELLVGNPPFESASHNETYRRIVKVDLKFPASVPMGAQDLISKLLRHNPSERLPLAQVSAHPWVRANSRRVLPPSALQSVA
Description: AuroraB Homogeneous Time Resolved Fluorescent (HTRF) kinase assay. The format is biochemical. The settings on record: average; read-out: AurB_IC50_IP (uM Avg). The method, boiled down: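 Read-out is time-resolved FRET between europium anti-phospho-H3 antibody and streptavidin-APC, added in EDTA buffer to stop the reaction and equilibrated about 60 min (ex 320, em 615 and 655 nm). Preceding reaction: ~90 min, full-length enzyme, ATP, 0.1 μM biotin-Histone H3 substrate, Mg/Mn HEPES buffer pH 7.5.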

Regarding `COc1ccc2nccc(Oc3ccc(Nc4nnc(-c5ccccc5)c5ccccc45)cc3)c2c1` [compound 238, N-(4-((6-(methyloxy)-4-quinolinyl)oxy)phenyl)-4-phenyl-1-phthalazinamine], the IC50 on AuroraA-TPX2 is 0.265 µM; on AuroraB, 0.005 µM.

Take `COc1ccc2nccc(Oc3ccc(Nc4nnc(-c5ccc(Cl)cc5)c5ccccc45)cc3)c2c1` [compound 239, 4-(4-chlorophenyl)-N-(4-((6-(methyloxy)-4-quinolinyl)oxy)phenyl)-1-phthalazinamine]: the IC50 is 0.12 µM on AuroraA-TPX2 and 0.008 µM at AuroraB.

With `COc1cccc(-c2nnc(Nc3ccc(Oc4ccnc5cc(-c6cncn6C)sc45)cc3)c3ccccc23)n1` [compound 240, N-(4-((2-(1-methyl-1H-imidazol-5-yl)thieno[3,2-b]pyridin-7-yl)oxy)phenyl)-4-(6-(methyloxy)-2-pyridinyl)-1-phthalazinamine], the results for the IC50 on AuroraA-TPX2 and at AuroraB were 0.006 µM and 0.001 µM, respectively.

On to `Clc1ccc(-c2nnc(Nc3ccc(Oc4ccnc5[nH]ccc45)cc3)c3ccccc23)cc1` [compound 241, 4-(4-chlorophenyl)-N-(4-(1H-pyrrolo[2,3-b]pyridin-4-yloxy)phenyl)-1-phthalazinamine], for which the IC50 on AuroraA-TPX2 stood at 0.089 µM; on AuroraB it was 0.001 µM.

`N#Cc1ccc2c(Oc3ccc(Nc4nnc(-c5ccc(Cl)cc5)c5ccccc45)cc3)ccnc2c1` [compound 242, 4-((4-((4-(4-chlorophenyl)-1-phthalazinyl)amino)phenyl)oxy)-7-quinolinecarbonitrile]: the IC50 stood at 0.173 µM at AuroraA-TPX2 and 0.022 µM on AuroraB.

Turning to `COc1cnc2c(Oc3ccc(Nc4nnc(-c5ccc(C)c(F)c5)c5ccccc45)cc3)ccnc2c1` [compound 243, 4-(3-fluoro-4-methylphenyl)-N-(4-((7-(methyloxy)-1,5-naphthyridin-4-yl)oxy)phenyl)-1-phthalazinamine], the IC50 at AuroraA-TPX2 was 0.014 µM; at AuroraB, 0.005 µM.

For the compound `Brc1cnc2c(Oc3ccc(Nc4nnc(-c5ccccc5)c5ccccc45)cc3)ccnc2c1` [compound 245, N-(4-((7-bromo-1,5-naphthyridin-4-yl)oxy)phenyl)-4-phenyl-1-phthalazinamine], the results for the IC50 at AuroraA-TPX2 and at AuroraB were 0.153 µM and 0.006 µM, respectively.

For the compound `COc1cnc2c(Oc3ccc(Nc4nnc(-c5ccc(F)c(C)c5)c5ccccc45)cc3)ccnc2c1` [compound 246, 4-(4-fluoro-3-methylphenyl)-N-(4-((7-(methyloxy)-1,5-naphthyridin-4-yl)oxy)phenyl)-1-phthalazinamine], the results for the IC50 on AuroraA-TPX2 and on AuroraB were 0.032 µM and 0.008 µM, respectively.

`COc1cnc2c(N(C)c3ccc(Nc4nnc(-c5cc(C)cs5)c5ccccc45)cc3)ccnc2c1` [compound 247, N-methyl-N-(7-(methyloxy)-1,5-naphthyridin-4-yl)-N′-(4-(4-methyl-2-thienyl)-1-phthalazinyl)-1,4-benzenediamine]: the values for the IC50 on AuroraA-TPX2 and at AuroraB were 0.219 µM and 0.032 µM, respectively.

As for `Cn1cncc1-c1cc2nccc(Oc3ccc(Nc4nnc(-c5ccc(Cl)cc5)c5ccccc45)cc3)c2s1` [compound 249, 4-(4-chlorophenyl)-N-(4-((2-(1-methyl-1H-imidazol-5-yl)thieno[3,2-b]pyridin-7-yl)oxy)phenyl)-1-phthalazinamine], the figures for the IC50 at AuroraA-TPX2 and on AuroraB were 0.004 µM and 0.001 µM, respectively.

`Clc1ccc(-c2nnc(Nc3ccc(Oc4ccnc5ccsc45)cc3)c3ccccc23)cc1` [compound 250, 4-(4-chlorophenyl)-N-(4-(thieno[3,2-b]pyridin-7-yloxy)phenyl)-1-phthalazinamine]: the IC50 at AuroraA-TPX2 came to 0.094 µM; on AuroraB it was 0.003 µM.

With `c1ccc(-c2nnc(Nc3ccc(Oc4ccnc5ccsc45)cc3)c3ccccc23)cc1` [compound 251, 4-phenyl-N-(4-(thieno[3,2-b]pyridin-7-yloxy)phenyl)-1-phthalazinamine], the IC50 at AuroraA-TPX2 is 0.376 µM; on AuroraB it was 0.004 µM.
